Experimental data published in patent US20060110456A1, “Method for biocidal and/or biostatic treatment and compositions therefor” (NATIONAL UNIVERSITY OF SINGAPORE, priority 2004, published 2006).
“Also recorded” adds a separate entry of the source. Structures can show the parent of a compound that is named as a salt. Where two headings read alike, the source gives them in different places.

Tests used:
barnacle nauplii = test: Toxicity of drugs under different light conditions and over time (stability in seawater); assay type: in vivo, Balanus amphitrite; conditions: for Change in toxicity on ageing in seawater, 12L:12D condition: 12 h light and 12 h dark; for Change in toxicity on ageing in seawater, 12L:12D condition / Change in toxicity on ageing in seawater, dark condition: after 4 weeks
Experimental: Preliminary experiments were carried out to examine the chemical stability of the drugs. 25 ug ml^−1 seawater suspensions of the drugs were prepared, in 3 replicates per condition, 3 replicate tubes containing 15 ml per test tube per prepared for each treatment type. The treatments consisted of: • i. Dark condition: tubes were wrapped in aluminium foil and kept in the dark at all times • ii. 12L:12D condition, where the tubes were subject incubated in a plant growth chamber with light regime of 12 hours light and 12 hours dark. • iii. UV treated tubes were subject to UV for half an hour. […] Sets (1) & (2) were tested at week 0, 1, 2 and after 4 weeks. “UV” set is only assayed after UV treatment. […] Effect of UV

[1] = system: marine bacteria (26 strains); test: Disk inhibition assay; assay type: cell-based, marine bacteria isolated from Singapore fouling communities; conditions: for zone of inhibition at 25 µg/disc: 25 μg per disc; for zone of inhibition at 50 µg/disc: 50 μg per disc
Experimental: Preparation of Drugs onto Disks for Assay
The non-antibiotic pharmaceuticals of Table 1 were prepared in the following way. A tablet with a known amount of active ingredient (as stated in the product information) was ground in a mortar and pestle and suspended in sterile deionized water to a concentration of 2 mg ml^−1. These samples were sonicated for at least 1 min. […] The two halves of the capsule were separated and the powder released straight into a bottle and suitable amount of water added to make a concentration of 2 mg ml^−1.
As a comparison to the pharmaceuticals, to determine the susceptibility of the bacterial isolates to conventional antibiotics, commercially available antibiotic discs were used. Antibiotic discs (Oxoid® CT series) containing Ampicillin [Amp] (2 and 10 μg), Erythromycin [Ery] (5 and 15 μg), Streptomycin [Str] (10 and 25 μg) and Tetracycline [Tet] (5 and 30 μg) were placed on lawns of the bacterial strains inoculated as described below.
Sterile swabs dipped into the cultures were used to inoculate Marine Agar plates with a bacterial lawn by smearing the culture over the surface. After inoculating the plates, discs with antibiotics, pharmaceuticals or control blanks were placed on each plate. Each concentration of antibiotic or pharmaceutical was tested with three replicates on three separate occasions. After the disks were placed on the agar surface, plates were incubated overnight in the dark at 30° C. After incubation, plates were examined for zones of inhibition or clearing around control and treated disks. The diameter of any zone of clearing or inhibition was measured using Vernier calipers.
The assay was repeated three times with three replicates for each concentration used, each time.

[2] = system: biofilm bacteria (strains 4, 9, 14, 20, 27, 28); test: Effect of pharmaceuticals on adhesion of bacteria to plastic / biofilm formation on NTC and TC plates; assay type: cell-based, marine bacteria isolated from Singapore fouling communities; conditions: for Effect on formation of bacterial biofilms on NTC and TC plates: 25 ug ml−1, NTC = untreated polystyrene, TC = tissue-culture treated, strains 4, 9, 14, 20, 27, 28; for Prevention of formation of biofilm: crude rank, best (1) to worst (8)
Experimental: Commercial forms of pharmaceuticals were used as previously described. […] These samples were sonicated for at least 1 min and these fine suspensions were used as initial stock solutions.
For studies of bacterial adhesion, the pharmaceuticals were first sterilized by soaking in absolute alcohol (Merck) for half an hour. Ethanol was removed by air-drying with air passed through 0.25 μm pore size syringe filter (Sartorius, Germany). Stock solutions were concentrations of 100 μg ml−1 in SDI.
The effect of pharmaceuticals on bacterial adhesion was analyzed using a modified microplate method adapted from Shea and Williamson (1990). This method employs a combination of staining attached bacteria with crystal violet, releasing the stain with sodium desoxycholate, and measuring the resulting absorbance of the crystal violet.
Detailed results for six selected strains are presented here: strains 4, 9, 14, 20, 27, 28. The bacterial strains were grown in Marine Broth (Pronadisa, Spain) overnight, in the dark, at 28° C. on a rotary shaker (150 rpm) in 5 ml centrifuge tubes (Falcon). Cells were harvested by centrifugation (1500×g, 10 min) and resuspended in sterile seawater (SSW). SSW was prepared by filtering seawater through a 0.2 μm pore size filter (Sartorius) followed by autoclaving. The cells were centrifuged and resuspended once more in SSW. The concentration of resuspended cells was adjusted to A600=1.0 using a spectrophotometer (Beckman DU530, USA).
Flat bottom 96 well polystyrene (hydrophobic, Falcon 351172) (=NTC) and tissue-culture treated polystyrene (hydrophilic, Falcon 353072) (=TC) microplates were used in the analyses. Each test was performed in triplicate. Two sets of experiments were conducted. […] For the control and blank wells, 25 ul of SDI were added. For wells containing pharmaceuticals, 25 ul of the respective pharmaceutical at a concentration of 100 ug ml−1 were added. This was immediately followed by the addition of 75 ul of bacterial suspension. To blanks were added 75 ul of SSW.
The bacterial cells in suspension were allowed to attach for 2 h at 28° C. Unattached cells were removed by aspiration using a plate washer (Tecan, Austria) and wells were rinsed three times with 200 ul of SSW each time. The attached cells were stained with 200 ul of crystal violet solution (0.1% w/v in deionized water) in each well for 5 min. After removing the stain using the plate washer, the wells were rinsed twice with 300 ul of SDI each time. Sodium desoxycholate (200 ul) solution (2% w/v in deionized water) was added to each well to extract the crystal violet from the attached stained cells for 10 min. The absorbance of the crystal violet was read at 590 nm using a microplate reader (Sunrise, Tecan, Austria).
Results of the adhesion assay were obtained by the difference in absorbance readings between wells containing bacterial cells and the mean of absorbance of those containing the SSW only. The effect of the pharmaceuticals on bacterial adhesion was determined by the examining the differences in absorbance between the wells containing the pharmaceuticals+bacteria and the bacteria. The significance was compared using T-test.

[3] = crude rank, best (1) to worst (8)
[4] = 25 ug ml^−1 seawater suspension

`CN1CCN(C(c2ccccc2)c2ccccc2)CC1` [CYZ, Cyclizine hydrochloride] was tested. Which “Stability under UV and in seawater” value (barnacle nauplii; other studies carried out by the group) did it give?
Its value is “does not breakdown under UV and remains stable after four months in seawater”.

And the “Antibiotic activity against marine bacteria” value (from here on “Antibiotic activity”) ([1]; 25 or 50 μg per disc, in words)?
The value was “did not have any appreciable antibiotic activity against marine bacteria”.

What about the “Antibiotic activity” value [1, 3] of the same compound?
The value was 8.

What about the “Effect on formation of bacterial biofilms on NTC and TC plates” value ([2]; hydrochloride) of the same compound?
The value was “significantly more bacteria adhesion for strain 9; also recorded: No significant reduction in biofilm formation”.

What about the “Prevention of formation of biofilm” value [2] of the same compound?
The value was 8.

What does the source list for `CCCCCCCCCC(=O)OC1(c2ccc(Cl)cc2)CCN(CCCC(=O)c2ccc(F)cc2)CC1` [HDL, haloperidol decanoate]?
Change in toxicity on ageing in seawater, 12L:12D condition (barnacle nauplii; [4]): increased in toxicity; Antibiotic activity against marine bacteria ([1]; 25 or 50 μg per disc, in words): did not have any appreciable antibiotic activity against marine bacteria; Antibiotic activity against marine bacteria [1, 3]: 8; Effect on formation of bacterial biofilms on NTC and TC plates [2]: no significant difference from control; also recorded: On TC, there was a slight reduction in biofilm formation for strain 28 (p<0.1); also recorded: No significant reduction in biofilm formation was observed for most strains, except for strain 28, where there appears to be a slight effect (0.05<p<0.1); Prevention of formation of biofilm [2]: 6

`CN(C)C(=O)C(CCN1CCC(O)(c2ccc(Cl)cc2)CC1)(c1ccccc1)c1ccccc1` [IMD, Loperamide hydrochloride] was tested. Which “Antibiotic activity” value ([1]; 25 or 50 μg per disc, in words) did it give?
Its value is “did not have any appreciable antibiotic activity against marine bacteria”.

And the “Antibiotic activity” value [1, 3]?
The value was 8.

And the “Effect on formation of bacterial biofilms on NTC and TC plates” value ([2]; hydrochloride)?
Its value is “On NTC, there was a slight reduction in strain 28; also recorded: reduction of biofilm growth in strain 28 on NTC but not on TC”.

And the “Prevention of formation of biofilm” value [2]?
The value was 7.

What does the source list for `CN1CCN(CCCN2c3ccccc3Sc3ccc(Cl)cc32)CC1` [PCZ, prochlorperazine maleate]?
Change in toxicity on ageing in seawater, 12L:12D condition (barnacle nauplii; [4]): marked decrease in toxicity; Change in toxicity on ageing in seawater, dark condition (barnacle nauplii; [4]): appreciable decrease in toxicity; Antibiotic activity against marine bacteria [1]: strongest activity; Antibiotic activity against marine bacteria [1, 3]: 3; zone of inhibition at 25 µg/disc ([1]; strain 1 (Rhodovulum)): < 5 mm; zone of inhibition at 50 µg/disc ([1]; strain 1 (Rhodovulum)): < 5 mm; zone of inhibition at 25 µg/disc ([1]; strain 2 (Erythrobacter)): < 5 mm; zone of inhibition at 50 µg/disc ([1]; strain 2 (Erythrobacter)): < 5 mm; zone of inhibition at 25 µg/disc ([1]; strain 3 (Erythrobacter)): 10 to 19 mm; zone of inhibition at 50 µg/disc ([1]; strain 3 (Erythrobacter)): 10 to 19 mm; zone of inhibition at 25 µg/disc ([1]; strain 4 (Bacillus)): 10 to 19 mm; zone of inhibition at 50 µg/disc ([1]; strain 4 (Bacillus)): 10 to 19 mm; zone of inhibition at 25 µg/disc ([1]; strain 6 (Vibrio)): < 5 mm; zone of inhibition at 50 µg/disc ([1]; strain 6 (Vibrio)): 5 to 9 mm; zone of inhibition at 25 µg/disc ([1]; strain 7 (Vibrio)): < 5 mm; zone of inhibition at 50 µg/disc ([1]; strain 7 (Vibrio)): < 5 mm; zone of inhibition at 25 µg/disc ([1]; strain 8 (Bacillus)): 10 to 19 mm; zone of inhibition at 50 µg/disc ([1]; strain 8 (Bacillus)): 10 to 19 mm; zone of inhibition at 25 µg/disc ([1]; strain 9 (Bacillus)): 10 to 19 mm; zone of inhibition at 50 µg/disc ([1]; strain 9 (Bacillus)): 10 to 19 mm; zone of inhibition at 25 µg/disc ([1]; strain 10 (Halobacillus)): 10 to 19 mm; zone of inhibition at 50 µg/disc ([1]; strain 10 (Halobacillus)): 10 to 19 mm; zone of inhibition at 25 µg/disc ([1]; strain 11 (Pseudomonas)): 10 to 19 mm; zone of inhibition at 50 µg/disc ([1]; strain 11 (Pseudomonas)): 10 to 19 mm; zone of inhibition at 25 µg/disc ([1]; strain 12 (Gordonia)): 10 to 19 mm; zone of inhibition at 50 µg/disc ([1]; strain 12 (Gordonia)): 20 to 29 mm; zone of inhibition at 25 µg/disc ([1]; strain 13 (Bacillus)): 10 to 19 mm; zone of inhibition at 50 µg/disc ([1]; strain 13 (Bacillus)): 10 to 19 mm; zone of inhibition at 25 µg/disc ([1]; strain 14 (Vibrio)): < 5 mm; zone of inhibition at 50 µg/disc ([1]; strain 14 (Vibrio)): < 5 mm; zone of inhibition at 25 µg/disc ([1]; strain 16 (Pseudoalteromonas)): < 5 mm; zone of inhibition at 50 µg/disc ([1]; strain 16 (Pseudoalteromonas)): < 5 mm; zone of inhibition at 25 µg/disc ([1]; strain 17 (Gordonia)): 10 to 19 mm; zone of inhibition at 50 µg/disc ([1]; strain 17 (Gordonia)): 20 to 29 mm; zone of inhibition at 25 µg/disc ([1]; strain 18 (Microbacterium)): 10 to 19 mm; zone of inhibition at 50 µg/disc ([1]; strain 18 (Microbacterium)): 20 to 29 mm; zone of inhibition at 25 µg/disc ([1]; strain 19 (Erythrobacter)): 10 to 19 mm; zone of inhibition at 50 µg/disc ([1]; strain 19 (Erythrobacter)): 10 to 19 mm; zone of inhibition at 25 µg/disc ([1]; strain 20): 10 to 19 mm; zone of inhibition at 50 µg/disc ([1]; strain 20): 10 to 19 mm; zone of inhibition at 25 µg/disc ([1]; strain 21): < 5 mm; zone of inhibition at 50 µg/disc ([1]; strain 21): 10 to 19 mm; zone of inhibition at 25 µg/disc ([1]; strain 22): 10 to 19 mm; zone of inhibition at 50 µg/disc ([1]; strain 22): 10 to 19 mm; zone of inhibition at 25 µg/disc ([1]; strain 24): 10 to 19 mm; zone of inhibition at 50 µg/disc ([1]; strain 24): 10 to 19 mm; zone of inhibition at 25 µg/disc ([1]; strain 26): 5 to 9 mm; zone of inhibition at 50 µg/disc ([1]; strain 26): 10 to 19 mm; zone of inhibition at 25 µg/disc ([1]; strain 27): 5 to 9 mm; zone of inhibition at 50 µg/disc ([1]; strain 27): 10 to 19 mm; zone of inhibition at 25 µg/disc ([1]; strain 28): 10 to 19 mm; zone of inhibition at 50 µg/disc ([1]; strain 28): 10 to 19 mm; zone of inhibition at 25 µg/disc ([1]; strain 29): 10 to 19 mm; zone of inhibition at 50 µg/disc ([1]; strain 29): 10 to 19 mm; zone of inhibition at 25 µg/disc ([1]; strain 30): 10 to 19 mm; zone of inhibition at 50 µg/disc ([1]; strain 30): 10 to 19 mm; Effect on formation of bacterial biofilms on NTC and TC plates [2]: reduced biofilm formation only for strains 4 and 27; also recorded: active against strain 4, and a slight effect on strain 27; Prevention of formation of biofilm [2]: 4

Which results are given for `CN[C@H]1CC[C@@H](c2ccc(Cl)c(Cl)c2)c2ccccc21.Cl` [ZLT, sertraline hydrochloride]?
Change in toxicity on ageing in seawater, 12L:12D condition (barnacle nauplii; [4]): not altered by any of the treatments applied; Effect of UV on drug toxicity to barnacle nauplii (barnacle nauplii; 25 ug ml^−1 seawater suspension, UV for half an hour): not altered by any of the treatments applied; Change in toxicity on ageing in seawater, dark condition (barnacle nauplii; [4]): not altered by any of the treatments applied; Effect on formation of bacterial biofilms on NTC and TC plates ([2]; hydrochloride): Biofilm formation was reduced for most strains except strain 14; also recorded: reduction of biofilm growth for most strains (except strain 14) on NTC, but only for strain 28 on TC; Prevention of formation of biofilm [2]: 3
